Eight compounds from patent US20250099596A1, “TETRAHYDRONAPHTHALENE COMPOUND, AND PREPARATION METHOD THEREFOR AND USE THEREOF IN MEDICINE” (Jiangsu Hengrui Pharmaceuticals Co., Ltd., priority 2021, published 2025) can be followed below.

One assay relates to MCF7 cells. The assay can be described thus: Inhibitory effects on MCF7 cell proliferation (CellTiter-Glo). The assay is classed as cell-based. The note with it: Homo sapiens, 144 h, 6 days incubation, read-out: IC50 (nM), inhibition of MCF7 cell proliferation. How it is done: (§1) MCF7 cells (TCHu74, National Collection of Authenticated Cell Cultures) were cultured in an MEM (GE Healthcare, SH30024.01) complete medium containing 10% fetal bovine serum. On day 1 of the experiment, MCF7 cells were seeded into a 96-well plate at a density of 3,000 cells/well using MEM containing 2% fetal bovine serum, with each well containing 135 μL of cell suspension. The plate was incubated in a 37° C., 5% CO2 cell incubator overnight. The next day, different concentrations of test compounds prepared in media were added at 15 μL/well. The final concentrations of the compounds were 9 concentration points obtained by 4-fold serial dilution from 1000 nM. A blank control containing 0.5% DMSO was set up. The plate was incubated in a 37° C., 5% CO2 cell incubator for 6 days. On day 8, the 96-well cell culture plate was taken out, and CellTiter-Glo® Luminescent Cell Viability Assay (Promega, G7573) was added at 75 μL/well. After the plate was left at room temperature for 10 min, luminescence signal readings were taken on a multilabel microplate reader (PerkinElmer, VICTOR 3). The IC50 values for the inhibitory activity of the compounds were calculated from the concentrations of the compounds and the luminescence signal readings using Graphpad Prism software.

Another assay relates to MCF7/ERα Y537S cells. The assay can be described thus: Inhibitory activity on proliferation of ERα mutant-expressing MCF7 cells. The assay is classed as cell-based. The note with it: Homo sapiens, 144 h, 6 days incubation, CellTiter-Glo, read-out: IC50 (nM), inhibition of proliferation of ERα mutant-expressing MCF7 cells. How it is done:
The objective of this experiment was to determine the inhibitory activity of the compounds of the present disclosure on the proliferation of ERα mutant-expressing MCF7 cells.
as §1, with “cells expressing the ERα Y537S mutant were constructed by lentiviral infection. MCF7/ERα Y537S cells” for “cells (TCHu74, National Collection of Authenticated Cell Cultures)”, “bovine serum and […] puromycin.” for “bovine serum.”, “experiment,” for “experiment, MCF7”, “135 µL” for “135 μL”, “75 µL/well.” for “75 μL/well.”
In general terms: ATP-based viability assays read luminescence as a measure of living cells.

For the compound `O=C1CCC(N2Cc3cc(N4CCN(CC5CCN(c6ccc([C@@H]7c8ccc(O)cc8CCC78CCCC8)cc6)CC5)CC4)ccc3C2=O)C(=O)N1` (mixture of isomers) [Example 2-1, 3-(5-(4-((1-(4-((R)-6′-Hydroxy-3′,4′-dihydro-1′H-spiro[cyclopentane-1,2′-naphthalen]-1′-yl)phenyl)piperidin-4-yl)methyl)piperazin-1-yl)-1-oxoisoindolin-2-yl)piperidine-2,6-dione], the figures for the IC50 with MCF7 cells and with MCF7/ERα Y537S cells were 1.94 nM and 7.83 nM, respectively.
On to `CC(C)(C)C[C@H]1CCc2cc(O)ccc2[C@H]1c1ccc(N2CCC(CN3CCN(c4ccc5c(c4)CN([C@H]4CCC(=O)NC4=O)C5=O)CC3)CC2)cc1` [Example 39, (S)-3-(5-(4-((1-(4-((1R,2R)-6-Hydroxy-2-neopentyl-1,2,3,4-tetrahydronaphthalen-1-yl)phenyl)piperidin-4-yl)methyl)piperazin-1-yl)-1-oxoisoindolin-2-yl)piperidine-2,6-dione], for which the IC50 in the assay with MCF7 cells came out at 5.23 nM; in the assay on MCF7/ERα Y537S cells, 15.8 nM.
Turning to `CC(C)C[C@H]1CCc2cc(O)ccc2[C@H]1c1ccc(N2CCC(CN3CCN(c4ccc5c(c4)CN(C4CCC(=O)NC4=O)C5=O)CC3)CC2)cc1` (mixture of isomers) [Example 41, 3-(5-(4-((1-(4-((1R,2R)-6-Hydroxy-2-isobutyl-1,2,3,4-tetrahydronaphthalen-1-yl)phenyl)piperidin-4-yl)methyl)piperazin-1-yl)-1-oxoisoindolin-2-yl)piperidine-2,6-dione], the IC50 in the assay on MCF7 cells turned out to be 0.62 nM; in the assay on MCF7/ERα Y537S cells, 2.89 nM.
In the case of `O=C1CC[C@H](N2Cc3cc(N4CCN(CC5CCN(c6ccc([C@@H]7c8ccc(O)cc8CC[C@@H]7C7CCC7)cc6)CC5)CC4)ccc3C2=O)C(=O)N1` [Example 13-1, (S)-3-(5-(4-((1-(4-((1R,2R)-2-Cyclobutyl-6-hydroxy-1,2,3,4-tetrahydronaphthalen-1-yl)phenyl)piperidin-4-yl)methyl)piperazin-1-yl)-1-oxoisoindolin-2-yl)piperidine-2,6-dione], the IC50 with MCF7 cells turned out to be 0.83 nM; in the assay on MCF7/ERα Y537S cells it was 4.79 nM.
With `O=C1CCC(N2Cc3cc(N4CCN(CC5CCN(c6ccc([C@@H]7c8ccc(O)cc8CC[C@@H]7C7CC7)cc6)CC5)CC4)ccc3C2=O)C(=O)N1` (stereo partly drawn) [Example 16, 3-(5-(4-((1-(4-((1,2)-cis-2-Cyclopropyl-6-hydroxy-1,2,3,4-tetrahydronaphthalen-1-yl)phenyl)piperidin-4-yl)methyl)piperazin-1-yl)-1-oxoisoindolin-2-yl)piperidine-2,6-dione], the figures for the IC50 with MCF7 cells and in the assay with MCF7/ERα Y537S cells were 4.63 nM and 14.9 nM, respectively.
Consider `C[C@H]1CCc2cc(O)ccc2[C@H]1c1ccc(N2CCC(CN3CCN(c4ccc5c(c4)CN([C@H]4CCC(=O)NC4=O)C5=O)CC3)CC2)cc1` [Example 27, (S)-3-(5-(4-((1-(4-((1R,2S)-6-Hydroxy-2-methyl-1,2,3,4-tetrahydronaphthalen-1-yl)phenyl)piperidin-4-yl)methyl)piperazin-1-yl)-1-oxoisoindolin-2-yl)piperidine-2,6-dione], for which the IC50 stood at 13.4 nM in the assay on MCF7 cells and 44.6 nM in the assay on MCF7/ERα Y537S cells.
The like results for `O=C1CCC(N2Cc3cc(N4CCN(CC5CCN(c6ccc([C@H]7c8ccc(O)cc8CC[C@H]7C7CCOCC7)cc6)CC5)CC4)ccc3C2=O)C(=O)N1` (stereo partly drawn) [Example 8-2, 3-(5-(4-((1-(4-((1S,2S)-6-Hydroxy-2-(tetrahydro-2H-pyran-4-yl)-1,2,3,4-tetrahydronaphthalen-1-yl)phenyl)piperidin-4-yl)methyl)piperazin-1-yl)-1-oxoisoindolin-2-yl)piperidine-2,6-dione] were, in that order, 36.5 nM and 92.2 nM.
Regarding `CC(C)C[C@H]1CCc2cc(O)ccc2[C@H]1c1ccc(N2CCC(CN3CCN(c4ccc5c(c4)CN([C@H]4CCC(=O)NC4=O)C5=O)CC3)CC2)c(F)c1` [Example 37, (S)-3-(5-(4-((1-(2-Fluoro-4-((1R,2R)-6-hydroxy-2-isobutyl-1,2,3,4-tetrahydronaphthalen-1-yl)phenyl)piperidin-4-yl)methyl)piperazin-1-yl)-1-oxoisoindolin-2-yl)piperidine-2,6-dione], the IC50 stood at 1.46 nM in the assay on MCF7 cells and 5.27 nM in the assay with MCF7/ERα Y537S cells.
